In publication PMC4931477, “Electronic Biosensing with Functionalized rGO FETs” (Biosensors, 2016):

Tests used:
[1] = target: T1, OBP14 (odorant binding protein 14) (Apis mellifera, UniProt A0A8U0WQC3); assay: rGO-FET biosensor, shift of ISD-vs-VG curves with ligand concentration; conditions: protein covalently immobilized via PBSE on rGO gate; liquid gate, VSD = 50 mV
T1 construct: recombinant, bacterial expression, purified by chromatography and Superose-12 gel filtration; covalently immobilized via PBSE linker on rGO FET gate
T1 sequence (A0A8U0WQC3 17-135): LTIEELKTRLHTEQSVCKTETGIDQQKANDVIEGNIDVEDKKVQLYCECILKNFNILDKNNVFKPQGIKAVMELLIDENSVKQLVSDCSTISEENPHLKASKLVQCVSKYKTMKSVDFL

[2] = target: T1, OBP14 (odorant binding protein 14); assay: rGO-FET biosensor, real-time kinetics (koff/kon), source-drain current
[3] = target: T1, OBP14 (odorant binding protein 14); assay: rGO-FET biosensor, equilibrium titration, Langmuir isotherm; conditions: protein covalently immobilized via PBSE on rGO gate; aqueous solution; titration determination

Row | Compound | rGO-FET biosensor, shift of ISD-vs-VG curves with ligand concentration [1] | Kd [2] | KA [3]
1 | C=CCc1ccc(O)c(OC)c1 [Eugenol] | OBP14 functionalized rGO FET-biosensor device at different Eugenol concentrations |  | 
2 | COc1cc(CC(=O)O)ccc1O [homovanillic acid] |  | 7.1 µM | 2.5 × 10^5
